Series [1] relates to Friedreich's ataxia lymphocyte. Description: Inhibition of DEM-induced ROS production in human Friedreich's ataxia lymphocytes incubated for 16 hrs followed by DEM treatment for 80 mins by DCFH-DA dye based flow cytometry. The series is classed as functional, cell-based.
A short description of series [2]: Increase in frataxin protein expression levels in FRDA patient derived Friedreich's ataxia lymphocytes at 50 nM after 24 to 48 hrs by ELISA relative to control. The series is classed as functional, Homo sapiens, Friedreich's ataxia lymphocyte.
Series [3] is described as follows: Induction of inner mitochondrial membrane potential depolarization in human Friedreich's ataxia lymphocytes assessed as JC-1 aggregates at 2500 nM after 16 hrs by JC1-staining based flow cytometry (reference value: 83%). The series is classed as functional, Friedreich's ataxia lymphocyte.
Series [4] has as its system Friedreich's ataxia lymphocyte. Description: Cytoprotective activity against rotenone-induced cytotoxicity in human Friedreich's ataxia lymphocytes assessed as increase in cell viability at 250 to 2500 nM preincubated for 12 hrs followed by complex 1 inhibitor rotenone addition measured after 16 hrs by calceinAM ester/ethidium homodimer-1 staining based flow cytometry. In kind it is functional.

The nature of series [5]: Cytotoxicity against human Friedreich's ataxia lymphocytes assessed as cell viability by measuring dead cells at 2500 nM after 48 hrs by calceinAM ester/ethidium homodimer-1 staining based flow cytometry (reference value: 10.6%). As to conditions: friedreich's ataxia lymphocyte, 2.5 µM.
The species entered for series [6] is Homo sapiens. Description: Cytoprotective activity against BSO-treated human Friedreich's ataxia fibroblasts assessed as increase in cell viability at 25 to 50 nM incubated overnight followed by BSO addition measured after 48 hrs by calceinAM ester/ethidium homodimer-1 staining based flow cytometry. The series is classed as functional.
The nature of series [7]: Induction of inner mitochondrial membrane potential depolarization in human Friedreich's ataxia lymphocytes assessed as JC-1 monomers at 250 nM after 16 hrs by JC1-staining based flow cytometry (reference value: 17.3%). In kind it is functional, Friedreich's ataxia lymphocyte.
The nature of series [8]: Cytotoxicity against human Friedreich's ataxia lymphocytes assessed as cell viability by measuring live cells at 2500 nM after 48 hrs by calceinAM ester/ethidium homodimer-1 staining based flow cytometry (reference value: 89.3%). Further details: species or system Friedreich's ataxia lymphocyte. Conditions: read-out: Activity.
Series [9] can be described thus: (§1) Cytoprotective activity against BSO-treated human Friedreich's ataxia fibroblasts assessed as increase in cell viability incubated overnight followed by BSO addition measured after 48 hrs by calceinAM ester/ethidium homodimer-1 staining based flow cytometry. The series is classed as functional.
For series [10], the species on record is Homo sapiens. Described as §1. In kind it is functional.
Series [11] can be described thus: Cytotoxicity against human Friedreich's ataxia lymphocytes assessed as cell viability by measuring dead cells at 250 nM after 24 hrs by calceinAM ester/ethidium homodimer-1 staining based flow cytometry (reference value: 11.2%). Conditions: friedreich's ataxia lymphocyte, 0.25 µM.
Series [12] can be described thus: Cytotoxicity against human Friedreich's ataxia lymphocytes assessed as cell viability by measuring dead cells at 2500 nM after 24 hrs by calceinAM ester/ethidium homodimer-1 staining based flow cytometry (reference value: 11.2%). Conditions: friedreich's ataxia lymphocyte, 2.5 µM.
Series [13] is described as follows: Cytotoxicity against human Friedreich's ataxia lymphocytes assessed as cell viability by measuring live cells at 2500 nM after 24 hrs by calceinAM ester/ethidium homodimer-1 staining based flow cytometry (reference value: 88.2%). Further details: species or system Friedreich's ataxia lymphocyte. Conditions: read-out: Activity.
The nature of series [14]: Cytotoxicity against human Friedreich's ataxia lymphocytes assessed as cell viability by measuring dead cells at 250 nM after 48 hrs by calceinAM ester/ethidium homodimer-1 staining based flow cytometry (reference value: 10.6%). As to conditions: friedreich's ataxia lymphocyte, 0.25 µM.
Series [15] relates to Friedreich's ataxia lymphocyte. Description: Increase in total ATP levels in human Friedreich's ataxia lymphocytes at 0.5 to 2.5 uM after 24 hrs by bioluminescence assay. In kind it is functional, cell-based.
Series [16] has as its system Friedreich's ataxia lymphocyte. Description: Induction of mitochondrial biogenesis in FRDA patient derived Friedreich's ataxia lymphocytes assessed as increase in COX-1/SDH-A protein levels at 250 nM after 24 to 48 hrs by ELISA. In kind it is functional. As to conditions: Homo sapiens.
Series [17] can be described thus: Induction of inner mitochondrial membrane potential depolarization in human Friedreich's ataxia lymphocytes assessed as JC-1 aggregates at 250 nM after 16 hrs by JC1-staining based flow cytometry (reference value: 83%). The series is classed as functional, Friedreich's ataxia lymphocyte.
Series [18] is described as follows: Cytotoxicity against human Friedreich's ataxia lymphocytes assessed as cell viability by measuring live cells at 250 nM after 24 hrs by calceinAM ester/ethidium homodimer-1 staining based flow cytometry (reference value: 88.2%). Further details: species or system Friedreich's ataxia lymphocyte. Conditions: read-out: Activity.
Series [19] concerns Friedreich's ataxia lymphocyte. The series can be described thus: Increase in total ATP levels in human Friedreich's ataxia lymphocytes at 0.1 uM after 24 hrs by bioluminescence assay. The series is classed as functional, cell-based.
Series [20] deals with Friedreich's ataxia lymphocyte. Description: Increase in frataxin protein expression levels in FRDA patient derived Friedreich's ataxia lymphocytes at 250 nM after 24 to 48 hrs by ELISA. In kind it is functional. As to conditions: Homo sapiens.
Series [21] is described as follows: Induction of inner mitochondrial membrane potential depolarization in human Friedreich's ataxia lymphocytes assessed as JC-1 monomers at 2500 nM after 16 hrs by JC1-staining based flow cytometry (reference value: 17.3%). The series is classed as functional, Friedreich's ataxia lymphocyte.
Series [22] is described as follows: Induction of mitochondrial biogenesis in FRDA patient derived Friedreich's ataxia lymphocytes assessed as increase in COX-1/SDH-A protein levels at 50 nM after 24 to 48 hrs by ELISA relative to control. The series is classed as functional, Homo sapiens, Friedreich's ataxia lymphocyte.
Series [23] can be described thus: Cytotoxicity against human Friedreich's ataxia lymphocytes assessed as cell viability by measuring live cells at 250 nM after 48 hrs by calceinAM ester/ethidium homodimer-1 staining based flow cytometry (reference value: 89.3%). Further details: species or system Friedreich's ataxia lymphocyte. As to conditions: read-out: Activity.
Series [24] concerns Friedreich's ataxia lymphocyte. Description: Increase in total ATP levels in human Friedreich's ataxia lymphocytes at 0.1 to 0.5 uM after 24 hrs by bioluminescence assay. In kind it is functional, cell-based.
In series [25] the test system is Friedreich's ataxia lymphocyte. The series can be described thus: Increase in total ATP levels in human Friedreich's ataxia lymphocytes at 2.5 uM after 24 hrs by bioluminescence assay. The series is classed as functional, cell-based.
The species entered for series [26] is Mus musculus. The series can be described thus: Substrate activity at NADH-ubiquinone oxidoreductase in mouse liver mitochondrial membrane fractions assessed as induction of electron flow from complex-1 by measuring NADH oxidation at 5 uM after 5 mins in presence of complex 1 blocker rotenone at 0.1 uM using NADH and coenzyme Q1. In kind it is cell membranes.

Series [27] deals with Friedreich's ataxia lymphocyte. The series can be described thus: Restoration of total aconitase activity in FRDA patient derived Friedreich's ataxia lymphocytes at 50 to 250 nM after 5 days by colorimetric assay. In kind it is functional, cell-based. Conditions: Homo sapiens.

Calls of active or inactive are those of the source. No cut-off for these calls is given here. Some results are limits rather than exact numbers.

`CCCCCCCCCCCCCCCc1cc2nc3ccc(N(C)C)cc3sc-2cc1=[N+](C)C.[I-]`: in series [1], the inhibition entry is “Dose-dependent effect”. For the same molecule, the Activity entry in series [2] was “>=10%”; in series [3] it was 73%; in series [5] it was 31.2%; in [7], 14.2%; in series [10], “Dose-dependent effect”; in [11] it was 10.3%. The Activity in series [12] is 21.4%; in series [14], 14.5%; in series [17], 86.2%; in series [21] it was 28.4%; in [22], “>=15%”. Besides, the outcome in [4], in series [6] and in series [19] was Active. Further, the viability at 48 h, 2.5 µM in series [8] was 68.7%. In addition, the EC50 in series [9] is 31 nM. Besides, the viability at 24 h, 2.5 µM in [13] was 78.2%. The outcome in series [15], in series [16] and in series [20] was inactive. Also, the viability at 24 h, 0.25 µM in series [18] is 89.4%. Also, in series [23], the viability at 48 h, 0.25 µM was 85.4%.
As for `CCCCCCCCCCCCCCCCc1cc2nc3ccc(N(C)C)cc3sc-2cc1=[N+](C)C.[I-]`, in series [1], the inhibition result is “Dose-dependent effect”. Besides, the Activity result in [2] is “>=10%”; in [3], 77%; in [5] it was 18.6%; in [7], 18.2%; in series [10], “Dose-dependent effect”; in [11], 8.4%. Also, the Activity in series [12] is on record as 13%; in [14], 10.5%; in [17], 82.1%; in [21], 23.3%; in series [22], “>=15%”. Further, the outcome in [4], in [6], in series [24], in series [26] and in series [27] was Active. For the same molecule, the viability at 48 h, 2.5 µM in [8] was 81.2%. In addition, in series [9], the concentration for a half-maximal effect (EC50) was 29 nM. The viability at 24 h, 2.5 µM in series [13] is 87%. The outcome in series [16], in series [25] and in series [20] was inactive. Also, in [18], the viability at 24 h, 0.25 µM was 91.4%. Also, in series [23], the viability at 48 h, 0.25 µM was 89.4%.

The values are drawn from ChEMBL document CHEMBL4118183, “Lipophilic methylene blue analogues enhance mitochondrial function and increase frataxin levels in a cellular model of Friedreich's ataxia” (Bioorg Med Chem, 2018).
